“Also recorded” adds a separate entry of the source.
Tests used:
U87 cells = experiment: U87 GBM cell growth in vitro, viable cells counted; type: cell-based; details: Homo sapiens, U-87 MG, read-out: IC50 inhibition of GBM cell growth
Description: FIG. 6: Effect of Compound 102 on U87 Cells In Vitro at 1 uM; 2 uM; 5 uM; and 10 uM.
Viable cells were counted (mean and s.d.; n=3; Coulter particle counter).
(§1) Recent work led to the discovery that treatment with the compound, compound 100, and several homologs inhibit the serine/threonine protein phosphatases PP2A (FIG. 1). Compound 102 inhibits PP2A (IC50=˜0.4 μM) more potently than PP1 (IC50=˜80 μM) (FIG. 2). Associated with their inhibition of PP2A, Compound 100 and homologs inhibit a variety of human cancer cell types growing in cell culture and growing in vivo as xenografts implanted subcutaneously in SCID mice (FIG. 3 and FIG. 4). […] Death of these cancer cells is associated with profound disruption of microtubular structures. Such patterns of disordered microtubules during mitosis have been noted after exposure of cancer cells to spindle toxins include such vincristine, vinblastine, taxol, taxotere, ionizing radiation, and DNA damaging agents including anthracyclines and the platinum based compounds. The morphologic appearance of cells displaying these characteristics has been called the mitotic catastrophe phenotype (Castedo et al 2004).

PP2A [1] = target: T1, PP2A (Homo sapiens, UniProt P67775); experiment: PP2A activity in U87 xenografts and normal brain after i.p. injection; type: in vivo, SCID mice; parameters: PP2A activity in U87 s.c. xenografts (blue) and in normal brain tissue (yellow) of SCID mice; from tissue; host or cells: U87 s.c. xenografts and normal brain tissue of SCID mice; details: single dose 1.5 mg/kg i.p.
Description: PP2A activity in U87 s.c. xenografts (blue) and in normal brain tissue (yellow) of SCID mice at different times after i.p. injection of 1.5 mg/kg compound 102 (one mouse per point; each lysate was measured in triplicate: mean and s.d.)
as §1
Target sequence in this assay (P67775 whole entry): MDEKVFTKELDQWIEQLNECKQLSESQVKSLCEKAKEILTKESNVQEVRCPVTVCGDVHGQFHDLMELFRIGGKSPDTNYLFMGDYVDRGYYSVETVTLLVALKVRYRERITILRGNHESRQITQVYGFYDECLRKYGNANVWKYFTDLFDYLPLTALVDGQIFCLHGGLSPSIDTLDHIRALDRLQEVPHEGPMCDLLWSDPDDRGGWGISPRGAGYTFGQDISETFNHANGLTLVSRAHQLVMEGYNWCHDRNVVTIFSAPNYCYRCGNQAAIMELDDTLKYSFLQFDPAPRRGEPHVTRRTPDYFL

U373 cells = experiment: Cell cycle distribution of U373 cells by FACS; type: cell-based, human; details: U373, 48 hours
Description: (§2) Cells in unsynchronized logarithmic growth were exposed to vehicle or drug and adherent cells and cells in the media were collected. Harvested cells were fixed with 70% cold ethanol for 20 min at −20 degrees, washed with PBS, and stained with 10 ug/ml of PI and 1 ug/ml RNAse in TBS for 30 minutes and analyzed by FACS. A, Flow cytometry profiles of U87 cells after exposures to DMSO only, compound 102 only, 5 uM; TMZ only, 25 uM; compound 102 with TMZ combination, doxorubicin only, 2.0 uM and compound 102 with doxorubicin combination. B, Flow cytometry profiles of U373 cells. Exposures as in A, and C, Schema of proposed mechanisms of compound 102 enhancement of cancer chemotherapy.
(§3) We analyzed cell cycle patterns of U87MG and U373 cells 48 hours after exposure to TMZ or DOX alone and in combination with compound 102.

U87MG cells = experiment: Cell cycle distribution of U87MG cells by FACS; type: cell-based, human; details: 48 hours
Description: as §2, §3

PP2A [2] = target: T1, PP2A; experiment: PP2A activity in DAOY cells (immunoprecipitated PP2A/Akt-1 complexes, Malachite Green assay); type: cell-based; parameters: PP2A activity from the immunoprecipitated complexes was assayed; endogenous in cells; host or cells: DAOY cells; details: 0.15, 0.25, 0.3 μM, 1 hour
Description: Cultured DAOY cells were plated in […] flasks. When the cells were 80% confluent, the media was replaced with media containing either 0.15 μM Compound 102, 0.25 μM Compound 102, 0.3 μM Compound 102, or an equivalent volume of PBS vehicle. After 1 hour, the cells were washed three times in a 0.9% normal saline solution. T-PER solution was added to the cells, and cells were prepared for protein extraction. Lysates from each treatment group containing 300 μg of protein were applied to a spin column (Catch and Release v2.0 Reversible Immunoprecipitation System, Millipore, Billerica, Mass.) for immunoprecipitation of PP2A/Akt-1 kinase protein complexes using polyclonal anti-rabbit Akt-1 antibody (Cell Signaling Technology, Danvers, Mass.). PP2A activity from the immunoprecipitated complexes was assayed using a Malachite Green Phosphatase Assay specific for serine/threonine phosphatase activity (Ser/Thr Phosphatase Assay Kit 1, Millipore, Billerica, Mass.).
Target sequence in this assay (P67775 whole entry): as above
Target sequence in this assay (P30153 2-589 partner limits assumed): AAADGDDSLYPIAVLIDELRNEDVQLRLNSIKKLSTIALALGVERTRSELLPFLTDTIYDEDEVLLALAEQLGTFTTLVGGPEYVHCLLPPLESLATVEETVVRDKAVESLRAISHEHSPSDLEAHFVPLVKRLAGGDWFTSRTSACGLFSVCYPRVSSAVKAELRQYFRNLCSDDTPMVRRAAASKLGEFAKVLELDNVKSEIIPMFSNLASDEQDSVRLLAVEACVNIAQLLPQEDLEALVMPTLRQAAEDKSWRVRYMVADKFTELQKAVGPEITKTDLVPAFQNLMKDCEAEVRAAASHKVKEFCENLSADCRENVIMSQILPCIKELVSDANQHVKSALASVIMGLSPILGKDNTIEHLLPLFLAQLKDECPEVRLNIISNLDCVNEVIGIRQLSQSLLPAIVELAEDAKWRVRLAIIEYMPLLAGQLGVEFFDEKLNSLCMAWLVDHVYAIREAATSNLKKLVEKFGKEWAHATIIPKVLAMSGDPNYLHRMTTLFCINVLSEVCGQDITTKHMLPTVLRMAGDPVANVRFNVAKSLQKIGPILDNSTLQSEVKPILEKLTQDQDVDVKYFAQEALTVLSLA

SH-SY5Y xenografts = experiment: SH-SY5Y neuroblastoma s.c. xenografts in SCID mice, compound 102 and TMZ; type: in vivo; details: as U87MG plus one additional cycle; followed 7 weeks
Description: 5×10^6 U87MG cells were inoculated s.c. into each flank of 20 SCID mice. When the xenografts were 0.5+/−0.1 cm (day 0), 5 animals each received i.p. vehicle alone days 1-12 (50% DMSO/H20); compound 102 alone at 1.5 mg/kg days 1-3, 5-7, & 9-11; TMZ alone at 80 mg/kg days 4, 8, 12; or both drugs at the same doses and schedules. If xenografts reached 1800 mm^3, animals were sacrificed. […] B, Survival curve combining the data from the study shown in FIG. 12A, with a second identical study involving a total of 10 animals with two xenografts each. Disease-free survival was defined as no recurrence of either xenografts. […] As in 12A, except that xenografts of SH-SY5Y cells were implanted in one flank only and animals were treated with one additional cycle of drugs, i.e., compound 102 on days 13-15, TMZ, on day 16, and compound 102 plus TMZ on the same schedules. […] E, Western blots of U87 cells in culture 24 hours after exposure to compound 102 at 2.5 uM, TMZ at 25 uM or DOX at 2 uM, and compound 102 plus TMZ or DOX. F, Western blots of U373 cells 24 hours after exposure to compound 102 at 2.5 uM, doxorubicin at 2 uM, and both drugs. G, Western blots of U373 cells 24 hours after exposure to TMZ at 25 uM, okadaic acid at 2 nM, and both drugs. […]

[3] = compound 102 5 uM, TMZ 25 uM, doxorubicin 2.0 uM

Compound: CC(C)(C)OC(=O)N1CCN(C(=O)C2C(C(=O)O)[C@H]3CC[C@@H]2O3)CC1 (some centres unmarked) [Compound 102]
- IC50 (U87 cells): ~4 µM
- PP2A activity in normal brain tissue (PP2A [1]): inhibits PP2A activity
- PP2A activity in s.c. U87 MG xenografts (PP2A [1]): inhibits PP2A activity
- G1 phase cells (U373 cells; [3]): no effect
- G2/M phase cells (U373 cells; same concentrations): no effect
- S phase cells (U373 cells; same concentrations): no effect
- G1 phase cells (U87MG cells; [3]): decreased
- G2/M phase cells (U87MG cells; same concentrations): prominently increased
- S phase cells (U87MG cells; same concentrations): modestly increased
- PP2A activity in DAOY cell line (PP2A [2]): Inhibition
- NB (SH-SY5Y) xenograft growth (SH-SY5Y xenografts): completely suppressed growth for 2 weeks; also recorded: no growth until week 3

Source: patent publication US9526915B2, “Methods for regulating cell mitosis by inhibiting serine/threonine phosphatase” (priority 2008, dated 2016)
